Data on three compounds can be found in patent US12617777B2, “GPR84 antagonists and uses thereof” (Liminal BioSciences Limited, priority 2021, dated 2026).

For experiment [1], the system named is mouse dextran sodium sulfate-induced chronic inflammatory bowel disease model. Conditions: once-daily doses of 3 and 10 mg/kg; efficacy similar to sulfasalazine; cited from earlier work.
For another experiment, the target named is T1, human GPR84 receptor (Homo sapiens, UniProt Q9NQS5).
T1 construct: host or cells: HEK293, transient transfection
T1 sequence (Q9NQS5 whole entry): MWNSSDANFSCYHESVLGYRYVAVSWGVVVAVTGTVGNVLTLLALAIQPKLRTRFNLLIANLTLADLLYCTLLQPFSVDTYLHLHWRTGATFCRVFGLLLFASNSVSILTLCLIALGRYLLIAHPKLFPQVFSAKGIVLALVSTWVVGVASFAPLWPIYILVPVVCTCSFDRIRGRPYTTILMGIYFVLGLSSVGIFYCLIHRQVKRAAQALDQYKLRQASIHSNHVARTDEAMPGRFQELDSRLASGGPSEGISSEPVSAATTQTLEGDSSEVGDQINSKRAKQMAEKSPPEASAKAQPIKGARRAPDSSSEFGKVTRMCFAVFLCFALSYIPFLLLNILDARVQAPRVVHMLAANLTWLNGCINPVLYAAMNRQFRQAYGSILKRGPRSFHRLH
The experiment is described as follows: Gαi biosensor BRET assay in HEK293 cells (antagonism of ZQ-16). Type of experiment: cell-based. The note with it: for IC50: HEK293 cells, antagonism of 200 nmol/L ZQ-16. A digest of the protocol:
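Antagonist mode: test compound 5 min at 37° C, followed by ZQ-16 agonist (200 nmol/L, 5 min, room temperature), in HEK293 cells transfected with GPR84 plus Rluc8-tagged Gαi2, GFP10-Gγ2 and Gβ1. Readout as GFP10/Rluc8 emission ratio after 5 μmol/L coelenterazine 400A, net of Rluc8-only and vehicle signal.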

A further experiment has as its system neutrophils. Briefly: Neutrophil migration assay (embelin as chemotactic agent, ATPlite readout). The note with it: for IC50: Neutrophil, human neutrophils, embelin as chemotactic agent, read-out: Human Neutrophil migration inhibition IC50; for Human Neutrophil migration inhibition - fold potency to Control Compound: normalized to GPR84 antagonist Control Compound (average IC50 131 nM). Type of experiment: cell-based. An outline of the steps: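 Isolated neutrophils (8.9×10^6 cells/ml in DMEM + 10 mM HEPES) preincubated with compound 30 min at 37 °C, then allowed to migrate 60 min at 37 °C through 5 μm-pore transwells toward embelin. Migrated cells quantified by ATPlite luminescence; results normalized for donor variation.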
Background: In ATP-based viability assays light output follows the ATP content of the culture.

The term inhibition denotes the share of the control response that was lost under treatment.

In the case of `O=c1nc(OC[C@@H]2COCCO2)cc2n1CCc1cc(C#CC3CC3)ccc1-2` [GLPG1205], in experiment [1], the “disease activity index score” value is “reduced” and the neutrophil infiltration result is listed as “reduced”.
For the compound `Cc1cc(C#CCNc2ccccc2)ccc1-c1cn(CC2CCCCO2)nn1` (stereo not shown) [Compound I-68], at human GPR84 receptor (HEK293, single concentration 5 μM (designated D)), the inhibition at 5 µM fell in the range of 50 to 75%. The IC50 against human GPR84 receptor lay in the range of 1 to 3 µM. In the experiment on neutrophils, the IC50 was in the range of 0.3 to 1 µM and the “Human Neutrophil migration inhibition - fold potency to Control Compound” value was “B (IC50 of >0.5-≤1.0-fold relative to Control Compound)”.
Consider `Cc1cc(C#CC2CC2)cnc1-c1cn(CC2CCCCO2)cn1` (stereo not shown) [Compound I-424], for which the inhibition at 10 µM against human GPR84 receptor (HEK293, single concentration 10 μM (designated F)) was over 75%. Besides, the IC50 against human GPR84 receptor was 1 to 3 µM; with neutrophils, at most 0.3 µM. The “Human Neutrophil migration inhibition - fold potency to Control Compound” value in the experiment with neutrophils is “A (IC50 of >1.0-fold relative to Control Compound)”.
